From patent US9763991B2, “Composition for the treatment of neurobehavioral disorders” (Cannabis Science International Holding B.V., priority 2013, dated 2017)

Legend:
[1] = system: C57BL6 mice; assay: Sleep monitoring after oral dosing (gavage) of Cannabinol in olive oil; format: in vivo, mouse; settings: all 5 doses (0.01-0.5 mg/Kg) by oral gavage in olive oil, single administration at 3 consecutive days, vs pure olive oil
Procedure: (§1) The experiment is designed to test a range of concentrations around the equivalent previously tested in humans for single-dose kinetics. Animal experiments were performed following the directive 2010/63/EU on the protection of animals used for scientific purposes.
(§2) 6 groups of 5-6 male C57BL6 of approximately 28 g body weight (range 27-30 g) with the use of one cage for 3 mice: Group 0: Pure Olive Oil, Group 1: CBN at 0.01 mg/Kg body weight, Group 2: CBN at 0.05 mg/Kg body weight, Group 3: CBN at 0.1 mg/Kg body weight, Group 4: CBN at 0.25 mg/Kg body weight and Group 5: CBN at 0.50 mg/Kg body weight
Solutions (named CBN 0, CBN 1, CBN 2, CBN 3, CBN 4, CBN 5, Pure Olive Oil) having different cannabinol concentrations dissolved in olive oil were prepared in sterile conditions, under a laminar flood hood. Pure olive oil was used as a negative control.
The volume that can be administered to the animal should not exceed 10 ml/kg. For a mouse of 20 g the maximum volume corresponds to 0.2 ml. For this procedure a volume of 0.1 ml will be used (half of the maximum volume). 1 ml of each stock solution (cannabinol, CBN 1-5 and pure olive oil, POO) was dispensed into Falcon vials. Prior to the administration, the weight of each mouse was recorded and the appropriate amount of cannabinol solution was determined. […]

[2] = system: C57BL6 mice; assay: Safety data, body weight and organ weight after oral dosing (gavage) of Cannabinol; format: in vivo, mouse
Procedure: as §1, §2
The volume that can be administered to the animal should not exceed 10 ml/kg. For a mouse of 20 g the maximum volume corresponds to 0.2 ml. For this procedure a volume of 0.1 ml will be used (half of the maximum volume). 1 ml of each stock solution (cannabinol, CBN 1-5 and pure olive oil, POO) was dispensed into Falcon vials. Prior to the administration, the weight of each mouse was recorded and the appropriate amount of cannabinol solution was determined. For the POO group always 0.1 ml was dispensed in 6 an eppendorf vessel, for the other experimental groups transfer the amounts of CBN 1-5 and POO according to table 2 were used in an eppendorf vial. The amounts to be administered were adjusted depending on mouse group and individual weights.
Monitor the animal for potential complications: Esophagitis (inflammation of the oesophagus), perforation of the oesophagus or trachea, damage to the cardiac sphincter (upper stomach sphincter) insertion of needle and solution into the lungs, lung perforation, damage to the oral cavity, aspiration of solution into the lungs from regurgitation, traumatic injuries related to improper restrain.
The mean weights (and standard deviations) of spleen, liver and kidney from all mice groups at sacrifice are monitored.

SMILES: CCCCCc1cc(O)c2c(c1)OC(C)(C)c1ccc(C)cc1-2 [Cannabinol]
- number of mice sleeping 30 minutes after administration [1]: increased significantly
- aggressive behaviour and clinical alterations (tremors) ([2]; 0.01-0.5 mg/Kg daily by oral gavage, male C57BL6 mice): No presence of aggressive behaviour, neither evident clinical alterations
- liver and kidney weights at sacrifice ([2]; among experimental groups, 0.01-0.5 mg/Kg oral): No significant changes
- body weight change ([2]; within experimental groups with time or among groups at fixed time, 0.01-0.5 mg/Kg oral): No significant changes
